Results reported in ChEMBL document CHEMBL4190372, “Discovery of a Novel Oral Glucocorticoid Receptor Modulator (AZD9567) with Improved Side Effect Profile” (J Med Chem, 2018).
In brackets after ≈: the same amount, converted by molar mass.

Columns and labels:
[1] = Aqueous solubility of the compound; assay type: physicochemical; settings: aqueous; read-out: solubility
Rattus norvegicus = assay: Dose normalized Cmax in Han-Wistar rat at 2.1 mg/kg, po; assay type: ADME, organism-based; settings: in vivo
[2] = Terminal half life in Han-Wistar rat at 0.8 mg/kg, iv; assay type: ADME, organism-based; settings: in vivo, read-out: beta t1/2 (converted)
[3] = Oral bioavailability in Han-Wistar rat at […]; assay type: ADME, organism-based; settings: in vivo
[4] = Volume of distribution at steady state in Han-Wistar rat at 0.8 mg/kg, iv; assay type: ADME, organism-based; settings: in vivo, read-out: Vdss
Glucocorticoid receptor [5] = target: T1, Glucocorticoid receptor (Rattus norvegicus, UniProt P06536); assay: Modulation of glucocorticoid receptor in rat plasma
T1 sequence (P06536 whole entry): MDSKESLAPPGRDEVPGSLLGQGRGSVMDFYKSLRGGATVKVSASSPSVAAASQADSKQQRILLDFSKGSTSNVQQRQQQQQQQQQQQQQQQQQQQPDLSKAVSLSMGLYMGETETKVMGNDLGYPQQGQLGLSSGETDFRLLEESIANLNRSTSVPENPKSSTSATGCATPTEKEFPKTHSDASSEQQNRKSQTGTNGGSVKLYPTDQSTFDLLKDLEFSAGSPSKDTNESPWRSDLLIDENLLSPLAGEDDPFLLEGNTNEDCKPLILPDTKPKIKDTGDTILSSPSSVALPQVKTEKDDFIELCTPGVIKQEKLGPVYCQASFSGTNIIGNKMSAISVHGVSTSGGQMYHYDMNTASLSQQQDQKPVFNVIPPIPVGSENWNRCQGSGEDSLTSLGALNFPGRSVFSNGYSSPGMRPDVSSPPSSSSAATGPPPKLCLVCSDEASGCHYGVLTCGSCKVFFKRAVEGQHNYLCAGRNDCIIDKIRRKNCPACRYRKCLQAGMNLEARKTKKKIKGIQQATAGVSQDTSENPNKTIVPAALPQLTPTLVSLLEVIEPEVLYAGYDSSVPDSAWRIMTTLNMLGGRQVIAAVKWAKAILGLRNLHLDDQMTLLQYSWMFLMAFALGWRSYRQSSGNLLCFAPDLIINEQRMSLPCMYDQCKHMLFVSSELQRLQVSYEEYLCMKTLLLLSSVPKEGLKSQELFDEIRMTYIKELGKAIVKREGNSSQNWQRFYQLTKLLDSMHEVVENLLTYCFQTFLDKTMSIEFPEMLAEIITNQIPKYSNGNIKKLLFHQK

[6] = Cmax in Han-Wistar rat plasma at 0.8 mg/kg, po; assay type: ADME, organism-based; design: dose 0.8 mg/kg, route oral
Glucocorticoid receptor [7] = target: T2, Glucocorticoid receptor (Homo sapiens, UniProt P04150)
T2 sequence (P04150 whole entry): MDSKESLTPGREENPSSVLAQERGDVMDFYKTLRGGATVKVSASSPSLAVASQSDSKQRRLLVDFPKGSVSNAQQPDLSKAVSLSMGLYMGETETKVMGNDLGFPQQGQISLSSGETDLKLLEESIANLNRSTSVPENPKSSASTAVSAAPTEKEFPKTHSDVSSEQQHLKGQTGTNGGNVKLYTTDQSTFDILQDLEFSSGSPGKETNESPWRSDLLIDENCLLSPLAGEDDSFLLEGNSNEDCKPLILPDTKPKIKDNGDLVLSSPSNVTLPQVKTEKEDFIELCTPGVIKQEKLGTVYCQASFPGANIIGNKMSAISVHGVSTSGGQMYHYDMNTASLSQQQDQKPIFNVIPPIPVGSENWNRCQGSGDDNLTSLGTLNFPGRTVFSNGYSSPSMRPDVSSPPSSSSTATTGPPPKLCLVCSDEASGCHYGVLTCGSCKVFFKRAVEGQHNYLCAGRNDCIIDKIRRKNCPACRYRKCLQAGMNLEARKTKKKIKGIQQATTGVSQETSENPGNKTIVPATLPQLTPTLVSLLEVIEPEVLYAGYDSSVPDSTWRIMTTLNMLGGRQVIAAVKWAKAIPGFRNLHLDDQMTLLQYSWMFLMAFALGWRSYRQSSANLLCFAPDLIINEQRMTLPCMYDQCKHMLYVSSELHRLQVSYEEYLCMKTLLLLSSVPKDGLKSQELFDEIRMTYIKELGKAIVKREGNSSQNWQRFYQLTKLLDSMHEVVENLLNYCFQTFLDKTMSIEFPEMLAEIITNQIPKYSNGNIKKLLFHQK
Description: Transrepression of GR in human whole blood assessed as inhibition of LPS-induced TNF-alpha release preincubated for 45 mins followed by LPS addition after 18 hrs by AlphaLISA method

Glucocorticoid receptor [8] = target: T2, Glucocorticoid receptor; settings: blood
Description: Therapeutic index, ratio of fIC20 for transrepression of GR in cryopreserved human fetal osteoblasts assessed as inhibition of OPG mRNA expression to fIC30 for transrepression of GR in human whole blood assessed as inhibition of LPS-induced TNF-alpha release

Androgen receptor = target: T3, Androgen receptor (Homo sapiens, UniProt P10275); assay: biochemical
T3 sequence (P10275 whole entry): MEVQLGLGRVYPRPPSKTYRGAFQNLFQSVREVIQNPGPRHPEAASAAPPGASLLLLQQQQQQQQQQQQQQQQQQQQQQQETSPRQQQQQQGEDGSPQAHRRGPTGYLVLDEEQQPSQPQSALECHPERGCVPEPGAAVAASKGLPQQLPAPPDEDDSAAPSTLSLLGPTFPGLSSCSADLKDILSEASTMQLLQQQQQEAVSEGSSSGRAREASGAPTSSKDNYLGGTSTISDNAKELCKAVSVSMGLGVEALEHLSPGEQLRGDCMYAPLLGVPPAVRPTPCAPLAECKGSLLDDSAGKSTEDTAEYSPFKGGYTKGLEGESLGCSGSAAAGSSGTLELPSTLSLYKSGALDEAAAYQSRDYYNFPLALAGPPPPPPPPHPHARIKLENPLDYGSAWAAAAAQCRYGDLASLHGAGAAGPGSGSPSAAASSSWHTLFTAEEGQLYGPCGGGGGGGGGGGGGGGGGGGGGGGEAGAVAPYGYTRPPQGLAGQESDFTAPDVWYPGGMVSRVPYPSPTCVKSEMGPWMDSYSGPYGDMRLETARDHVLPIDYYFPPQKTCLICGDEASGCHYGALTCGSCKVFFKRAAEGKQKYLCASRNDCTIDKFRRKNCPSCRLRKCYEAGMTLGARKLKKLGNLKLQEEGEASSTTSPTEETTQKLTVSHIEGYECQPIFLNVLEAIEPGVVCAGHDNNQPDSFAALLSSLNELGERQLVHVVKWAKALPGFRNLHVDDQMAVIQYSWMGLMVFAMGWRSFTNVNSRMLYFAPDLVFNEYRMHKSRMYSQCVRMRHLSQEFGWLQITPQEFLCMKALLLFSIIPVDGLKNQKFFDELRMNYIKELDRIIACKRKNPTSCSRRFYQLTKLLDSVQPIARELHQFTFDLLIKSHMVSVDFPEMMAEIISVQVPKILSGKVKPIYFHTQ
Description: Displacement of [3H]methyltrienolone from androgen receptor in human LNCaP cells after 1440 mins by scintillation counting method

## CC(C)[C@H](NC(=O)C(C)(F)F)[C@H](Oc1ccc2c(cnn2-c2ccc(=O)n(C)c2)c1)c1ccccc1 [MIZACORAT]
[1]
  solubility: 55 µM (≈ 27.2 µg/mL)
Rattus norvegicus
  Cmax/dose: 950 nM
[2]
  half-life: 2.3 h
[3]
  bioavailability: 52%
[4]
  Vd: 0.66 L/kg
Glucocorticoid receptor [5]
  IC50: 30 nM
[6]
  Cmax: 2000 nM
Glucocorticoid receptor [7]
  IC50: 680 nM
Glucocorticoid receptor [8]
  TI: 0.55
Androgen receptor
  IC50: > 100000 nM
